Results published in patent US9901584B2, “Methods of cosmetically treating skin conditions with a cosmetic personal cleansing composition” (The Procter & Gamble Company, priority 2015, dated 2018).

Tested on: Unhealthy Skin Signature
Conditions: normal human keratinocytes, various doses of zinc pyrithione, 6-24 hours

## zinc pyrithione
  Linkage to Unhealthy Skin Signature gene expression pattern: negative linkage
